The test system of the test is MDA-MB-468 breast. As to the kind of experiment: NCI tumour cell line growth inhibition, 48 h.

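How tested: cells in 96-well plates exposed to compound for 48 hours at five concentrations. At the GI50, growth is halved. TGI: total growth inhibition.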

Consider `NC(=O)[C@@H](CC1CC1)[C@@H](CCC(F)(F)F)C(=O)N[C@H]1N=C(c2ccccc2)c2cccc(F)c2NC1=O`, for which the GI50 is more than 100 µM and the TGI was more than 100 µM.

Consider `CCCCCCCCOC(=O)c1c(C)[nH]c(/C=C2\N=C(c3ccc[nH]3)C=C2OC)c1C`, for which the GI50 is 0.0868 µM and the TGI was determined as 2.67 µM.

With `C=C/C(C)=C/C[C@]1(C)[C@H](C)[C@@H](OC(=O)CCC)[C@H](O)[C@@]23C(=C[C@H](OC)C[C@@H]12)[C@@H](OC(=O)CCC)O[C@H]3OC(C)=O`, the GI50 was 0.337 µM and the TGI was 1.24 µM.

Take `COc1ccc(/C=C/C(=O)c2ccc(-n3cc(CN4CCN(c5cc6c(cc5F)c(=O)c(C(=O)O)cn6C5CC5)CC4)nn3)cc2)cc1OC`: the GI50 is 1.96 µM and the TGI worked out at 5.24 µM.

On to `COc1cc2ncnc(-n3ncc4cc(NC(=O)Nc5ccc(Cl)c(Cl)c5)ccc43)c2cc1OC`, for which the GI50 is 2.17 µM and the TGI is 4.52 µM.

As to `CCC(C)Oc1nc2c(c(=O)n(C)c(=O)n2C)n1C` (stereo not given), the GI50 was more than 100 µM and the TGI is more than 100 µM.

Turning to `NS(=O)(=O)c1ccc(N=Nc2c(O)[nH]c3ccc(C(=O)NCc4ccncc4)cc23)cc1`, the GI50 is more than 25 µM and the TGI is more than 25 µM.

Take `CCN(Cc1cc(F)ccc1F)c1ccc(CO)c(Cl)c1`: the GI50 is 0.0164 µM and the TGI is 0.0411 µM.

In the case of `CN1CCN(CCOc2ccc(-c3cnc4c(-c5cccc(F)c5)cnn4c3)cc2)CC1`, the GI50 was 1.67 µM and the TGI amounted to 3.25 µM.

Regarding `CN(C)CCNC(=O)c1ccc(-c2nc3ccc4[nH]ncc4c3c3c2C2CCC3C2)cc1` (stereo not given), the GI50 is 1.12 µM and the TGI was 3.14 µM.

Regarding `CCN1CCN(c2cc(C)nc(N(CCCNc3ccnc4cc(Cl)ccc34)Cc3ccc4c(c3)OCO4)n2)CC1`, the GI50 is 1.82 µM and the TGI was determined as 4.25 µM.

Turning to `Cc1cc(Nc2nc(C(=O)Nc3ccccc3)nc3ccccc23)n[nH]1`, the GI50 was 9.15 µM and the TGI was more than 25 µM.

Turning to `CC(C)c1nc(N(C)S(C)(=O)=O)nc(-c2ccc(F)cc2)c1/C=C/[C@@H](O)C[C@@H](O)CC(=O)O`, the GI50 was 18.5 µM and the TGI came out at 69.3 µM.

As for `Cc1ncc(C(=O)Nc2ccc(CN3CCN(C)CC3)c(C(F)(F)F)c2)cc1C#Cc1ccc(N)nc1`, the GI50 was 0.368 µM and the TGI worked out at 2.12 µM.

Take `O=S1(=O)N(Cc2ccccc2)[C@@H](Cc2ccccc2)[C@H](O)[C@H](O)[C@H](Cc2ccccc2)N1Cc1ccccc1`: the GI50 is 2.98 µM and the TGI is 7.17 µM.

As to `CN1CCN(Cc2ccc(NC(=O)c3cncc(C#Cc4cnc(N)cc4C#N)c3)cc2C(F)(F)F)CC1`, the GI50 was 2.01 µM and the TGI was determined as 5.3 µM.

As to `CC1CN(S(=O)(=O)c2oc(-c3ccc(Cl)cc3)nc2C#N)CC(C)O1` (stereo not given), the GI50 was 1.87 µM and the TGI was 4.16 µM.

Regarding `CCCCCN(CCCCC)CC(O)c1cc(Cl)ccc1OC` (stereo not given), the GI50 was 9.71 µM and the TGI came out at 23.1 µM.

With `Cc1ccc2nc(-c3ccc(OCC(=O)N=Nc4c(O)[nH]c5ccccc45)cc3)[nH]c2c1`, the GI50 is 2.09 µM and the TGI stood at 4.9 µM.

Regarding `COc1cccc(CN(C)c2ccc(CO)c(Cl)c2)c1`, the GI50 is 0.0209 µM and the TGI was determined as 0.06 µM.

With `COC(=O)C(CCC(=O)CCl)N1C(=O)c2ccccc2C1=O` (stereo not given), the GI50 is 2.11 µM and the TGI came out at 5.61 µM.

On to `c1cc(-c2nnc(SSc3ncnc4nc[nH]c34)o2)ccn1`, for which the GI50 is 0.251 µM and the TGI is 0.967 µM.

With `Cc1cc(C)c2c(n1)sc1c(N)ncnc12`, the GI50 was 19.9 µM and the TGI was more than 25 µM.

In the case of `CC(Nc1c(C#N)cnc2ccc(-c3cncc(-c4n[nH]c(=O)o4)c3)cc12)c1ccccc1` (stereo not given), the GI50 is 1.23 µM and the TGI turned out to be 3.66 µM.

`NCCCCC1NC(=O)C(CC(=O)O)NC(=O)CNC(=O)C(CCCN=C(N)N)NC(=O)C(N)CSSCC(C(=O)O)NC(=O)C(CC(=O)O)NC(=O)C2CCCN2C(=O)CNC1=O` (stereo not given): the GI50 was more than 100 µM and the TGI was more than 100 µM.

In the case of `COC(=O)C12CC(NC(=O)c3csc([C@@H](C[C@H](C(C)C)N(C)C(=O)[C@@H](NC(=O)[C@H]4CCCCN4C)C4CC4)OC(C)=O)n3)(C1)C2`, the GI50 is 0.0169 µM and the TGI is more than 16.7 µM.

For `O=C1C2=C(C(=O)c3cnccc31)C1C=CC2CC1` (stereo not given), the GI50 was 0.185 µM and the TGI was found to be 0.416 µM.

Regarding `CC1=C2C(=CC(C)(C)[C@@H]2O)C(=O)[C@](C)(O)C12CC2`, the GI50 is 0.0129 µM and the TGI stood at 0.0362 µM.

Take `CN(Cc1ccc(C(F)(F)F)cc1)CC(O)C(=O)Nc1ccc(Cl)cc1` (stereo not given): the GI50 is 1.37 µM and the TGI amounted to 2.91 µM.

On to `O=C(Nc1ccc(F)cc1F)c1cc(Cl)ccc1O`, for which the GI50 is 1.64 µM and the TGI amounted to 5.07 µM.

`N#C/C(=C\c1ccc([N+](=O)[O-])s1)c1nc2cc(Cl)ccc2s1`: the GI50 was 2.36 µM and the TGI was 5.76 µM.

Consider `CCN1CCN(Cc2ccc(NC(=O)Nc3nc4ccc(Oc5ccnc(C(=O)NC)c5)cc4s3)cc2C(F)(F)F)CC1`, for which the GI50 was 1.66 µM and the TGI was determined as 3.2 µM.

As for `C=C1C(=O)O[C@H]2[C@H]1CC/C(COC(=O)NCc1ccc(OC)cc1)=C\CC[C@@]1(C)O[C@@H]21`, the GI50 was 0.352 µM and the TGI was determined as 1.75 µM.

As to `O=C(/C=C/c1ccc(C(F)(F)F)cc1)Nc1ccc(C=C2c3ccccc3C(=O)c3ccccc32)cc1`, the GI50 is 1.99 µM and the TGI stood at 20.8 µM.

Consider `CSc1ccc(/C(=N/N=C(N)N)c2ccccc2)cc1`, for which the GI50 was 0.451 µM and the TGI was 8.6 µM.

Turning to `CCn1c(-c2cc3c([nH]c4ccccc43)c(-c3cccc(O)c3)n2)n[nH]c1=S`, the GI50 was 3.19 µM and the TGI turned out to be 15.2 µM.

In the case of `C#CCNC(=S)N/N=C(\C)c1ccccn1`, the GI50 is 0.0335 µM and the TGI worked out at 0.273 µM.

Take `C1=C/COCc2cc(ccc2OCCN2CCCC2)Nc2nccc(n2)-c2ccc(o2)COC/1`: the GI50 was 1.49 µM and the TGI was determined as 3.18 µM.

In the case of `O=C(Nc1ccc(-n2ccc3c(NC(=O)c4ccccc4)ncnc32)cc1)c1cccc(C(F)(F)F)c1`, the GI50 was 4.05 µM and the TGI was 20.4 µM.

For the compound `CSc1ncc(Br)c(Sc2nc(N)nc3nc[nH]c23)n1`, the GI50 is 2.36 µM and the TGI was 19.7 µM.

The record behind these values is PubChem BioAssay (NCI).
